Data: patent US20200297847A1, “Pharmaceutical Composition For Treating Obesity Induced By High Fat Diet And Non-Alcoholic Fatty Liver Disease By Using Trisodium Chlorin E6 Photosensitizer” (DONG SUNG PHARM. CO., LTD., priority 2017, published 2020)

Experiments:
[1] = tested on: high-fat diet mice; assay: anti-obesity experiment (PDT, body weight of mice fed with high-fat diet); assay type: in vivo, C57 Black mice; settings: group 5: HFD + 2.5 mg/kg intraperitoneally + high-level LED irradiation (4.96 mW/cm^2, 10 min, 2.98 J/cm^2); compared with group 4 (low-level LED) and group 1 (HFD); FIG. 2
Method: (§1) 6-week-old C57 Black mice were purchased and were fed with normal diet for a week of environmental adaptation.
(§2) After feeding with normal diet for a week, these mice were randomly divided into 7 groups and tested. The body weight thereof was measured periodically (three times per week), and an anti-obesity experiment was conducted when the body weight was about 20% more than the initial body weight. The anti-obesity experiment was as follows.
For group 1, only high-fat diet (HFD) was provided and the body weight was periodically measured (HFD).
For group 2, only high-fat diet (HFD) was provided and the body weight was periodically measured, and the mice were placed in an LED-illuminated cage when the body weight thereof was about 20% or more than the initial body weight, followed by irradiation with low-level LED light.
For group 3, only high-fat diet (HFD) was provided and the body weight was periodically measured, and the mice were placed in an LED-illuminated cage when the body weight thereof was about 20% or more than the initial body weight, followed by irradiation with high-level LED light.
For group 4, only high-fat diet (HFD) was provided and the body weight was periodically measured, and when the body weight was about 20% or more than the initial body weight, trisodium Chlorin e6 (2.5 mg/kg) was dissolved in 200 μl of a saline solution and administered intraperitoneally. […]

[2] = tested on: mice; assay: toxicity detection (shape of whole body and internal organs after dissection); assay type: in vivo
Method: The mice treated with Chlorin e6 were tested for potential toxicity by observing the shape of the internal organs through dissection after killing.
The main concern in the development of medicaments or therapies is safety, and the safe use of medicaments means to effectively treat the disease with minimal or no toxicity in the body or parts of the body. Therefore, in the present experiment, the toxic effects of drugs and LED irradiation were examined. After the mice were dissected, the whole body and internal organs were examined in order to verify toxicity. […] It was observed that the liver was normal other than the fatty liver observed in the groups treated with HFD alone and LED alone (FIG. 6).

[3] = tested on: high-fat diet mice; assay: lipid production and examination of non-alcoholic steatohepatitis (morphological examination of liver); assay type: in vivo, C57 Black mice; settings: FIG. 3
Method: as §1, §2
For group 4, only high-fat diet (HFD) was provided and the body weight was periodically measured, and when the body weight was about 20% or more than the initial body weight, trisodium Chlorin e6 (2.5 mg/kg) was dissolved in 200 μl of a saline solution and administered intraperitoneally. After intraperitoneal administration thereof, the mice were allowed to adapt to a dark room for 3 hr and then placed in an LED-illuminated cage, followed by irradiation with low-level LED light.
For group 5, only high-fat diet (HFD) was provided and the body weight was periodically measured, and when the body weight was about 20% or more than the initial body weight, trisodium Chlorin e6 (2.5 mg/kg) was dissolved in 200 μl of a saline solution and administered intraperitoneally. […]

trisodium Chlorin e6
weight loss / reduction of percentage of weight gain [1]: the most effective group
toxicity during treatment ([2]; Chlorin e6 and LED irradiation in mice): Toxicity was not observed
internal organs after dissection ([2]; mouse, in vivo): no bleeding, color change or gangrene in the intestines was observed
non-alcoholic steatohepatitis (NASH) ([3]; group 4: HFD + 2.5 mg/kg intraperitoneally + low-level LED irradiation (2.56 mW/cm^2, 5 min, 0.77 J/cm^2)): alleviated
non-alcoholic steatohepatitis (NASH) ([3]; group 5: HFD + 2.5 mg/kg intraperitoneally + high-level LED irradiation): alleviated
